What is called EC50 is the concentration needed to bring the measured effect to its halfway point. One may read the EC90 as the point of the concentration-response curve where the effect stands at 90%. The CC50 is the concentration at which the toxic effect on the cells reaches its halfway point.

The text below walks through data of ChEMBL document CHEMBL5344434.

The nature of data set [1]: Selectivity index, ratio for cytotoxicity against human HepG2 cells after 24 hrs to antiviral activity against HEV Kernow-C1 infected in gaussia luciferase transfected HepG2 cells pre-infected with virus for 4 hrs followed by compound addition and measured after 24 hrs post infection. To be noted: read-out: Selectivity Index. The format is toxicity, cell-based.
Data set [2] in a line: Selectivity index, ratio for cytotoxicity against human HepG2 cells after 48 hrs to antiviral activity against HEV Kernow-C1 infected in gaussia luciferase transfected HepG2 cells pre-infected with virus for 4 hrs followed by compound addition and measured after 48 hrs post infection. The format is toxicity, cell-based. To be noted: read-out: Selectivity Index.
For data set [3], the system named is Hepatitis E virus. Put plainly: Antiviral activity against HEV Kernow-C1 infected in gaussia luciferase transfected HepG2 cells assessed as reduction in viral replication pre-infected with virus for 4 hrs followed by compound addition and measured after 24 hrs post infection by luminometer analysis. To be noted: for EC90: time 20 hrs. The format is functional, organism-based.

The subject of data set [4] is Hepatitis E virus. As to the kind of experiment: Antiviral activity against HEV Kernow-C1 infected in gaussia luciferase transfected HepG2 cells assessed as reduction in viral replication pre-infected with virus for 4 hrs followed by compound addition and measured after 48 hrs post infection by luminometer analysis. The format is functional, organism-based. The note with it: for EC90: time 44 hrs.

The nature of data set [5]: Cytotoxicity against human HepG2 cells after 48 hrs by MTT assay. The format is toxicity, cell-based. (In general: Tetrazolium assays rely on reduction of a dye to a coloured formazan, in cell work by metabolically active cells.)
The nature of data set [6]: Cytotoxicity against human HepG2 cells after 24 hrs by MTT assay. It is filed as toxicity, cell-based.
A short description of data set [7]: Selectivity index, ratio for cytotoxicity against human Huh-7 cells after 48 hrs to antiviral activity against Chikungunya virus ECSA infected in Huh-7 cells expressing GFP pre-infected with virus for 1 hr followed by compound addition and measured after 48 hrs post infection. The format is toxicity, cell-based. To be noted: read-out: Selectivity Index.
Data set [8] is described as follows: Selectivity index, ratio for cytotoxicity against african green monkey Vero E6 cells after 24 hrs to antiviral activity against SARS-CoV-2 2019-nCoV Muc-IMB-1 infected in Vero E6 cells pre-infected with virus for 1 hr followed by compound addition and measured after 24 hrs post infection. The format is toxicity, cell-based, Vero C1008. To be noted: read-out: Selectivity Index.

A short description of data set [9]: Selectivity index, ratio for cytotoxicity against african green monkey Vero E6 cells after 48 hrs to antiviral activity against SARS-CoV-2 2019-nCoV Muc-IMB-1 infected in Vero E6 cells pre-infected with virus for 1 hr followed by compound addition and measured after 48 hrs post infection. The format is toxicity, cell-based, Vero C1008. The note with it: read-out: Selectivity Index.

The nature of data set [10]: Selectivity index, ratio for cytotoxicity against african green monkey Vero E6 cells after 48 hrs to antiviral activity against RVFV MP-12 infected in Vero E6 cells pre-infected with virus for 1 hr followed by compound addition and measured after 48 hrs post infection. It is filed as toxicity, cell-based, Vero C1008. To be noted: read-out: Selectivity Index.
Data set [11] is described as follows: Selectivity index, ratio for cytotoxicity against human Huh-7 cells after 24 hrs to antiviral activity against Chikungunya virus ECSA infected in Huh-7 cells expressing GFP pre-infected with virus for 1 hr followed by compound addition and measured after 24 hrs post infection. It is filed as toxicity, cell-based. To be noted: read-out: Selectivity Index.
A short description of data set [12]: Selectivity index, ratio for cytotoxicity against african green monkey Vero E6 cells after 24 hrs to antiviral activity against RVFV MP-12 infected in Vero E6 cells pre-infected with virus for 1 hr followed by compound addition and measured after 24 hrs post infection. It is filed as toxicity, cell-based, Vero C1008. To be noted: read-out: Selectivity Index.

As to `COC(=O)[C@H]1[C@@H](O)[C@@]2(O)c3c(Br)cc(Br)cc3O[C@@]2(c2ccc(OC)cc2)[C@@H]1c1ccccc1` (racemic), the selectivity ratio at 24 h in data set [1] was 22.1. In data set [2], the selectivity ratio at 48 h is 2.6.
In the case of `COC(=O)[C@H]1[C@@H](O)[C@@]2(O)c3c(Br)cc(Cl)cc3O[C@@]2(c2ccc(OC)cc2)[C@@H]1c1ccccc1` (racemic), the selectivity ratio at 24 h in data set [1] stood at 19. For the same compound, the selectivity ratio at 48 h in data set [2] was 2.8.
The corresponding values for `COC(=O)[C@H]1[C@@H](O)[C@@]2(O)c3c(OC)cc(OC)cc3O[C@@]2(c2ccc(F)cc2)[C@@H]1c1ccccc1` (racemic) are 10.9 and 1.4.
Taken in the same sequence, the figures for `COC(=O)[C@H]1[C@@H](O)[C@@]2(O)c3c(F)cc(F)cc3O[C@@]2(c2ccc(OC)cc2)[C@@H]1c1ccccc1` (racemic) were 1 and 1.
The corresponding values for `COC(=O)[C@H]1[C@@H](O)[C@@]2(O)c3c(OC)cc(O[C@@H]4O[C@@H]([C@H](O)CO)CO[C@H]4OC)cc3O[C@@]2(c2ccc(OC)cc2)[C@@H]1c1ccccc1` [SILVESTROL] are 76.7 and 6.1.
Regarding `CONC(=O)[C@H]1[C@@H](O)[C@@]2(O)c3c(OC)cc(OC)cc3O[C@@]2(c2ccc(F)cc2)[C@@H]1c1ccccc1` (racemic), in the data set with Hepatitis E virus [3], the EC50 came to 53.7 nM and the EC90 came to 670 nM. Besides, in the data set on Hepatitis E virus [4], the EC50 amounted to 52.9 nM and the EC90 turned out to be 338 nM. This compound returned a CC50 at 48 h in data set [5] of 143 nM. For the same compound, in data set [1], the selectivity ratio at 24 h was found to be 13.5. Also, the CC50 at 24 h in [6] turned out to be 666 nM. For the same compound, in data set [2], the selectivity ratio at 48 h turned out to be 3.7.
Consider `COC(=O)[C@H]1[C@@H](O)[C@@]2(O)c3c(OC)cc(F)cc3O[C@@]2(c2ccc(OC)cc2)[C@@H]1c1ccccc1` (racemic), for which the selectivity ratio at 24 h in data set [1] was found to be 1. Besides, the selectivity ratio at 48 h in [2] turned out to be 1.3.
Taken in the same sequence, the figures for `COc1ccc([C@@]23Oc4cc(OC)cc(F)c4[C@]2(O)[C@H](O)[C@H](C(=O)N(C)C)[C@H]3c2ccccc2)cc1` (racemic) were 14.3 and 2.7.
Taken in the same sequence, the figures for `COC(=O)[C@H]1[C@@H](O)[C@@]2(O)c3c(OC)cc(OC)cc3O[C@@]2(c2ccc(Cl)cc2)[C@@H]1c1ccccc1` (racemic) were 26.4 and 2.2.
The corresponding values for `COC(=O)[C@H]1[C@@H](O)[C@@]2(O)c3c(F)cc(OC)cc3O[C@@]2(c2ccc(OC)cc2)[C@@H]1c1ccccc1` (racemic) are 30.4 and 2.5.
`COC(=O)[C@H]1[C@@H](O)[C@@]2(O)c3c(OC)cc(OC)cc3O[C@@]2(c2ccc(Br)cc2)[C@@H]1c1ccccc1` (racemic): the selectivity ratio at 24 h in data set [1] was determined as 74.1. In addition, in data set [2], the selectivity ratio at 48 h is 3.2.
Taken in the same sequence, the figures for `CONC(=O)[C@H]1[C@@H](O)[C@@]2(O)c3c(Cl)cc(Cl)cc3O[C@@]2(c2ccc(OC)cc2)[C@@H]1c1ccccc1` (racemic) were 65.9 and 3.3.
`CONC(=O)[C@H]1[C@@H](O)[C@@]2(O)c3c(OC)cc(OC)cc3O[C@@]2(c2ccc(Cl)cc2)[C@@H]1c1ccccc1` (racemic): in the data set on Hepatitis E virus [3], the EC50 came to 2.8 nM and the EC90 is 23.8 nM. Further, in the data set with Hepatitis E virus [4], the EC50 worked out at 2.3 nM and the EC90 worked out at 18.2 nM. In [5], the CC50 at 48 h came to 10 nM. Also, in data set [1], the selectivity ratio at 24 h was found to be 198. Also, the CC50 at 24 h in data set [6] was found to be 529 nM. Also, the selectivity ratio at 48 h in [2] came out at 4.2.
For the compound `COC(=O)[C@H]1[C@@H](O)[C@@]2(O)c3c(OC)cc(Br)cc3O[C@@]2(c2ccc(OC)cc2)[C@@H]1c1ccccc1` (racemic), the selectivity ratio at 48 h is 428 in [7], 20.9 in [9], 23.1 in [10] and 11 in data set [2]. In addition, the selectivity ratio at 24 h in data set [8] worked out at 29.5; in data set [1], 160; in [11] it was 637; in data set [12] it was 38.4.
For `COC(=O)[C@H]1[C@@H](O)[C@@]2(O)c3c(Cl)cc(Br)cc3O[C@@]2(c2ccc(OC)cc2)[C@@H]1c1ccccc1` (racemic), in data set [1], the selectivity ratio at 24 h was 122. For the same compound, the selectivity ratio at 48 h in [2] turned out to be 5.1.
As to `COCOc1cc(F)c2c(c1)O[C@@]1(c3ccc(Br)cc3)[C@H](c3ccccc3)[C@@H](C(=O)OC)[C@@H](O)[C@@]21O` (racemic), in [1], the selectivity ratio at 24 h came to 8.1. Moreover, in data set [2], the selectivity ratio at 48 h turned out to be 2.1.
The corresponding values for `COC(=O)[C@H]1[C@@H](O)[C@@]2(O)c3c(Cl)cc(OC)cc3O[C@@]2(c2ccc(OC)cc2)[C@@H]1c1ccccc1` (racemic) are 9.3 and 1.8.
The corresponding values for `COc1ccc([C@@]23Oc4cc(OC)cc(OC)c4[C@]2(O)[C@H](O)[C@H](C(=O)N(C)C)[C@H]3c2ccccc2)cc1` (racemic) [ROCAGLAMIDE] are 19.7 and 2.1.
The corresponding values for `COCOc1cc(F)c2c(c1)O[C@@]1(c3ccc(OC)cc3)[C@H](c3ccccc3)[C@@H](C(=O)OC)[C@@H](O)[C@@]21O` (racemic) are 4.6 and 1.8.
As to `COC(=O)[C@H]1[C@@H](O)[C@@]2(O)c3c(Cl)cc(Cl)cc3O[C@@]2(c2ccc(OC)cc2)[C@@H]1c1ccccc1` (racemic), the selectivity ratio at 48 h in [7] came out at 44.9; in data set [9], 5.7; in [10], 7; in data set [2] it was 8.2. Further, the selectivity ratio at 24 h was 9 in data set [8], 31.7 in [1], 57.5 in data set [11] and 9.8 in [12].
Regarding `COc1cc(OC)c2c(c1)O[C@@]1(c3ccc(Cl)cc3)[C@H](c3ccccc3)[C@@H](C(=O)N(C)C)[C@@H](O)[C@@]21O` (racemic), the selectivity ratio at 24 h in data set [1] is 50.8. For the same compound, the selectivity ratio at 48 h in [2] worked out at 2.7.
As to `CONC(=O)[C@H]1[C@@H](O)[C@@]2(O)c3c(OC)cc(OC)cc3O[C@@]2(c2ccc(OC)cc2)[C@@H]1c1ccccc1` (racemic), in the data set with Hepatitis E virus [3], the EC50 is 6.1 nM and the EC90 came to 29 nM. For the same compound, in the data set with Hepatitis E virus [4], the EC50 was determined as 3.7 nM and the EC90 was 27.3 nM. In data set [5], it took 14.3 nM to reach half-maximal cytotoxicity (CC50 at 48 h). The selectivity ratio at 24 h in data set [1] worked out at 35.4. In data set [6], the CC50 at 24 h worked out at 188 nM. Also, the selectivity ratio at 48 h in data set [2] was 3.8.
As to `COC(=O)[C@H]1[C@@H](O)[C@@]2(O)c3c(Br)cc(OC)cc3O[C@@]2(c2ccc(OC)cc2)[C@@H]1c1ccccc1` (racemic), the selectivity ratio at 24 h in [1] was 9.7. In addition, the selectivity ratio at 48 h in data set [2] amounted to 2.5.
The corresponding values for `COC(=O)[C@H]1[C@@H](O)[C@@]2(O)c3c(OC)cc(Cl)cc3O[C@@]2(c2ccc(OC)cc2)[C@@H]1c1ccccc1` (racemic) are 79.3 and 7.5.
Taken in the same sequence, the figures for `CONC(=O)[C@H]1[C@@H](O)[C@@]2(O)c3c(F)cc(OC)cc3O[C@@]2(c2ccc(OC)cc2)[C@@H]1c1ccccc1` (racemic) were 28.5 and 2.5.
With `CONC(=O)[C@H]1[C@@H](O)[C@@]2(O)c3c(Br)cc(Cl)cc3O[C@@]2(c2ccc(OC)cc2)[C@@H]1c1ccccc1` (racemic), in the data set with Hepatitis E virus [3], the EC50 was determined as 4.1 nM and the EC90 worked out at 131 nM. In the data set with Hepatitis E virus [4], the EC50 came to 5.5 nM and the EC90 is 62.9 nM. In [5], the CC50 at 48 h amounted to 26.3 nM. In addition, in [1], the selectivity ratio at 24 h amounted to 163. In addition, the CC50 at 24 h in [6] came to 464 nM. In [2], the selectivity ratio at 48 h is 4.6.
`CONC(=O)[C@H]1[C@@H](O)[C@@]2(O)c3c(OC)cc(Br)cc3O[C@@]2(c2ccc(OC)cc2)[C@@H]1c1ccccc1` (racemic): in data set [1], the selectivity ratio at 24 h worked out at 52800. The selectivity ratio at 48 h in data set [2] was determined as 7.4.
Regarding `COc1cc(OC)c2c(c1)O[C@@]1(c3ccc(F)cc3)[C@H](c3ccccc3)[C@@H](C(=O)N(C)C)[C@@H](O)[C@@]21O` (racemic), the selectivity ratio at 24 h in data set [1] was found to be 4.4. Further, in [2], the selectivity ratio at 48 h was 1.5.
With `COC(=O)[C@H]1[C@@H](O)[C@@]2(O)c3c(Cl)cc(Cl)cc3O[C@@]2(c2ccc(Br)cc2)[C@@H]1c1ccccc1` (racemic), the selectivity ratio at 24 h in data set [1] came to 13.4. Further, the selectivity ratio at 48 h in data set [2] turned out to be 3.7.
